Earlier results in patent US20080160594A1, “Methods of Light Activated Release of Ligands from Endosomes” (INVITROGEN CORPORATION, priority 2001, published 2008).

Settings: Vlassov et al., 1994

SMILES: CCCCCCCC/C=C\CCCCCCCCOCC(C[N+](C)(C)C)OCCCCCCCC/C=C\CCCCCCCC.[Cl-] (stereo not shown) [DOTMA, N-(1-(2,3-dioleyloxy)propyl)-N,N,N-trimethylammonium chloride]
- increase of the antisense effect of a phosphorothioate oligonucleotide: 1000 fold
